Usually IC50 stands for the concentration needed to halve the response being measured. Higher therefore signals a need for much substance.

The structures appear in SMILES notation.

This note sets out measurements from PMC4805609, “Estrogenic Effects of Several BPA Analogs in the Developing Zebrafish Brain” (Frontiers in Neuroscience, 2016).

Experiment [1] addresses T1, zfERβ1 (Danio rerio, UniProt Q5PR29).
T1 sequence (Q5PR29 1-592): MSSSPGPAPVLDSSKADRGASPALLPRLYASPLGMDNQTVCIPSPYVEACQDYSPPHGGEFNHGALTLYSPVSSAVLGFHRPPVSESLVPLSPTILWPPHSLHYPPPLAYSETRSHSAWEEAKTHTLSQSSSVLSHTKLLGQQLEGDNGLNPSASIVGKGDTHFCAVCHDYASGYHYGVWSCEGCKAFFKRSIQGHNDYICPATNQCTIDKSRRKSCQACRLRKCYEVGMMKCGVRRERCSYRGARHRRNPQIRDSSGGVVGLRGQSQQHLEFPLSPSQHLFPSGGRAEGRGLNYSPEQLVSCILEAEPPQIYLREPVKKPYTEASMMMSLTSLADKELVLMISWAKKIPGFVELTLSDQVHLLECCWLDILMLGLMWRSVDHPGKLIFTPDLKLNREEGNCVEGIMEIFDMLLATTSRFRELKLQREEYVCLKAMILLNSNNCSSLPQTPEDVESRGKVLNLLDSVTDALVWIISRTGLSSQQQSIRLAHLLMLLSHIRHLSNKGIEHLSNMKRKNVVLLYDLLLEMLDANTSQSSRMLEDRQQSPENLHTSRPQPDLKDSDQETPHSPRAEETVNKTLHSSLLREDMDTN
Kind of experiment: competitive binding assay vs [3H]-E2 on in vitro translated zfERβ1. On the set-up: species or system zebrafish. The method, then: (§1) We also performed a competitive binding assay to test the binding properties of our compounds of interest with the three zfERs (Blair et al., [2000]). The three zebrafish estrogen receptor proteins were synthesized using the Topo-pcDNA3 expression vector containing the coding region of zfERα, zfERβ1, and zfERβ2 (Menuet et al., [2002]). The TNT Quick Coupled Transcription/Translation Systems kit (Promega, Madison, WI, USA) was used for synthesis of zfER proteins by adding 1 μg of each ER expression vector and according to the manufacturer's protocol. […] IC50 were calculated using GraphPad Prism, version 6.07.

Experiment [2] deals with T2, zfERα (Danio rerio, UniProt P57717).
T2 sequence (P57717 1-569): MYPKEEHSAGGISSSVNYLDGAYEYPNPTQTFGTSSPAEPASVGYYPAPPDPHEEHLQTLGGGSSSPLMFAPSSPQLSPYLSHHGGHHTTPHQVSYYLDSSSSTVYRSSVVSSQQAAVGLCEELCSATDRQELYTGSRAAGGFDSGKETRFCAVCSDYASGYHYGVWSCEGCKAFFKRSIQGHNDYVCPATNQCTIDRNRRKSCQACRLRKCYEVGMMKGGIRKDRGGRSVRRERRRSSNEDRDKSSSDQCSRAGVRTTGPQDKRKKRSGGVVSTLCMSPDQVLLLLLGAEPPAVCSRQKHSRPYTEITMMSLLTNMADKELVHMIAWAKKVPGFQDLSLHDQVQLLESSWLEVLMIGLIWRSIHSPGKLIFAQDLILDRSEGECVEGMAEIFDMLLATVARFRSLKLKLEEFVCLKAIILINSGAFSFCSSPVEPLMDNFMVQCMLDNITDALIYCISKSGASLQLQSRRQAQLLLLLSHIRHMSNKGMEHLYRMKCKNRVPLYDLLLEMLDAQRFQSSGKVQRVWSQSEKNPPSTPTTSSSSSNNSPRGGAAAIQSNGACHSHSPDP
Kind of experiment: competitive binding assay vs [3H]-E2 on in vitro translated zfERα. On the set-up: containing the coding regions of each zebrafish estrogen receptor cDNA; species or system zebrafish. The conditions noted are these: for receptor-binding activity: competition with [3H]-E2, ERα, Figure 8A. On the procedure:
as §1

In experiment [3] the target is T1, zfERβ1. Kind of experiment: cyp19a1b-luciferase reporter gene assay in U251-MG glial cells transfected with zfERβ1. Type of experiment: cell-based, zebrafish. The note with it: 10–6 M, 24 h, U251-MG cells with ERβ1, vs DMSO. The text has this:
The zfER-α, zfER-β1, and zfER-β2 expression vectors correspond to Topo-pcDNA3 expression vector (Invitrogen, San Diego, CA, USA), containing the coding regions of each zebrafish estrogen receptor cDNA as previously described (Menuet et al., [2002]). The cyp19a1b-Luciferase plasmid consists of 500 bp of the proximal promoter region of zebrafish cyp19a1b gene, containing an ERE, coupled to the luciferase reporter gene (Menuet et al., [2002]).
(§2) Human U251-MG glial cells were maintained in phenol red-free Dulbecco's Modified Eagle's Medium (DMEM; Life Technologies, Saint Aubin, France) supplemented with 10% fetal calf serum (Biowest, Nuaillé, France), 4 mM L-Glutamine (Gibco, Carlsbad, CA, USA) and 1 mM Na-Pyruvate (Life Technologies, Saint Aubin, France) and kept at 37°C and 5% CO2 atmosphere (Le Page et al., [2006]). The medium was also supplemented with 20 U/mL penicillin, 20 μg/mL streptomycin, and 50 ng/mL amphotericin B (Gibco). For transfections, cells were plated in 24-well plates at a density of 25,000 cells/ml in the same medium, except the fetal calf serum was charcoal-treated and used at a concentration of 2.5%. Cells were transfected with 25 ng/well either the vector expression containing or not the zfERα, zfERβ1, zfERβ2 coding region and cytomegalovirus [CMV]−β-Galactosidase, and 150 ng/well of the cyp19a1b-Luciferase reporter plasmid, using JetPEI as a transfection reagent (Polyplus Transfection, Illkirch, France). […] Luciferase activity was measured 24 h later (Luciferase assay system, Promega, Madison, WI, USA). β-Galactosidase activity was used to normalize transfection efficiency. Chemicals were tested in at least 3 independent experiments and each experiment was performed in triplicate.
In general terms: In a reporter assay the amount or activity of a reporter protein is the signal.

Experiment [4] deals with T3, zfERβ2 (Danio rerio, UniProt Q7ZU32). As to the kind of experiment: cyp19a1b-luciferase reporter gene assay in U251-MG glial cells transfected with zfERβ2. Type of experiment: cell-based, zebrafish. The conditions noted are these: 10–6 M, 24 h, U251-MG cells with ERβ2, vs DMSO. On the procedure:
as §2, with “The” for “Human U251-MG glial cells were maintained in phenol red-free Dulbecco's Modified Eagle's Medium (DMEM; Life Technologies, Saint Aubin, France) supplemented with 10% fetal calf serum (Biowest, Nuaillé, France), 4 mM L-Glutamine (Gibco, Carlsbad, CA, USA) and 1 mM Na-Pyruvate (Life Technologies, Saint Aubin, France) and kept at 37°C and 5% CO2 atmosphere (Le Page et al., [2006]). The”

Experiment [5] concerns the target T3, zfERβ2. The method, then:
as §1

T3 sequence (Q7ZU32 1-553): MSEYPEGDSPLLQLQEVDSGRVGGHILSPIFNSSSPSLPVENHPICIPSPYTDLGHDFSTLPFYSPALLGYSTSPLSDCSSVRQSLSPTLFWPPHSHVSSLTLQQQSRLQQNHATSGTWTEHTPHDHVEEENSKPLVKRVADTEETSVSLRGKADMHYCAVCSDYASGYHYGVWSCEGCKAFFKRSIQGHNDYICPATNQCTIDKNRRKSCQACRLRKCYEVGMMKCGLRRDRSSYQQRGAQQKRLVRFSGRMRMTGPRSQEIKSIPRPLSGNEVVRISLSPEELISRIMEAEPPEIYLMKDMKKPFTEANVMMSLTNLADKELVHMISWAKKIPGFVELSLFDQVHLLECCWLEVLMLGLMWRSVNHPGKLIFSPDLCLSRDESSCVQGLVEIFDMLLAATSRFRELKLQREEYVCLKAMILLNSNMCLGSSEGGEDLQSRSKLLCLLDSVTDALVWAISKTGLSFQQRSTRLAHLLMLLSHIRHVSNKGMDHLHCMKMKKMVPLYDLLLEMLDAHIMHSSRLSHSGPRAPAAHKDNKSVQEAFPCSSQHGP

As for `Oc1ccc(C(c2ccc(O)cc2)(C(F)(F)F)C(F)(F)F)cc1` [BPAF, 2,2-bis(4-hydroxylphenyl)hexafluoropropane], the IC50 in experiment [1] came out at 660 nM; in experiment [2] (displacement of 10^−9 M [3H]-E2, ERα), 76 nM. Further, the receptor-binding activity result in experiment [2] was “bind in vitro to ERα receptor”.
For `O=S(=O)(c1ccc(O)cc1)c1ccc(O)cc1` [BPS, bis-(4-hydroxyphenyl)sulfone], the “cyp19a1b-luciferase reporter gene induction” value in experiment [3] and in experiment [4] was “did not stimulate” in each case. For the same compound, the receptor-binding activity entry in experiment [1] (competition with [3H]-E2, ERβ1, Figure 8B) is on record as “almost no binding affinities”; in experiment [5], “almost no binding affinities”; in experiment [2], “almost no binding affinities”.
With `CC(c1ccccc1)(c1ccc(O)cc1)c1ccc(O)cc1` [BPAP, 4,4′-(1-phenylethylidene)bisphenol], the “cyp19a1b-luciferase reporter gene induction” value in experiment [3] and in experiment [4] was “did not stimulate” in each case.
